The results in this text go back to ChEMBL document CHEMBL5233222, “Bridging free radical chemistry with drug discovery: A promising way for finding novel drugs efficiently” (Eur J Med Chem, 2020).

This assay in a line: Inhibition of AAPH-induced hemolysis of human erythrocytes. The format is functional, cell-based. Particulars: erythrocyte.

In general, IC50 refers to the concentration that gives 50% inhibition.

Turning to `CC(C)=CCC[C@](C)(O[C@@H]1O[C@H](CO[C@@H]2O[C@H](CO)[C@@H](O)[C@H](O)[C@H]2O)[C@@H](O)[C@H](O)[C@H]1O)[C@H]1CC[C@]2(C)[C@@H]1[C@H](O)C[C@@H]1[C@@]3(C)CC[C@H](O[C@@H]4O[C@H](CO)[C@@H](O)[C@H](O)[C@H]4O[C@@H]4O[C@H](CO)[C@@H](O)[C@H](O)[C@H]4O)C(C)(C)[C@@H]3CC[C@]12C` [GINSENOSIDE RB1], half-maximal inhibition (IC50) required 3180 nM. This counts as single-digit micromolar.
Under `CC(C)=CCC[C@](C)(O[C@@H]1O[C@H](CO[C@@H]2OC[C@@H](O)[C@H](O)[C@H]2O)[C@@H](O)[C@H](O)[C@H]1O)[C@H]1CC[C@]2(C)[C@@H]1[C@H](O)C[C@@H]1[C@@]3(C)CC[C@H](O[C@@H]4O[C@H](CO)[C@@H](O)[C@H](O)[C@H]4O[C@@H]4O[C@H](CO)[C@@H](O)[C@H](O)[C@H]4O)C(C)(C)[C@@H]3CC[C@]12C` [GINSENOSIDE RB3] stands 2650 nM.
